Results from ChEMBL document CHEMBL5316345, “Discovery of the Potent and Selective MC4R Antagonist PF-07258669 for the Potential Treatment of Appetite Loss” (J Med Chem, 2023).

Columns and labels:
Melanocortin receptor 4 [1] = molecular target: T1, Melanocortin receptor 4 (Homo sapiens, UniProt P32245); assay: Antagonist activity at human MC4R in CHO cells measured for 24 hrs in presence of alpha-MSH; type: cell-based
[2] = molecular target: Voltage-gated inwardly rectifying potassium channel KCNH2 (Homo sapiens, UniProt Q12809); assay: Inhibition of hERG expressed in CHO cells stably at -80 mV holding potential by automated patch clamp method; type: toxicity, cell-based
Melanocortin receptor 4 [3] = molecular target: T1, Melanocortin receptor 4; assay: Antagonist activity at human MC4R expressed in CHO cells assessed as decrease in alpha-MSH induced cAMP level incubated for 1 hr by microplate reader analysis; type: functional, cell-based
Melanocortin receptor 4 [4] = molecular target: T1, Melanocortin receptor 4; assay: Antagonist activity at human MC4R in CHO cells measured for 24 hrs; type: cell-based
[5] = Efflux ratio of apparent permeability from basolateral to apical side over apical to basolateral side in MDCK-MDR1 cells; type: ADME, cell-based, Canis lupus familiaris; settings: dog
[6] = Metabolic stability in human hepatocyte assessed as intrinsic clearance measured per 10^6 cells HPLC/UV/MS analysis; type: ADME, cell-based; settings: hepatocytes, read-out: CLH
Cytochrome P450 3A = Cytochrome P450 3A (Homo sapiens, UniProt P08684+P20815+Q9HB55+P24462); assay: Time dependent inhibition of CYP3A (unknown origin) at 10 uM relative to control; type: ADME, protein assay
[7] = Metabolic stability in human hepatocyte assessed as intrinsic clearance measured per million cells HPLC/UV/MS analysis; type: ADME, cell-based; settings: hepatocytes, read-out: CLH
[8] = Lipophilicity, logD of compound at pH 7.4 by shake flask method; type: physicochemical; settings: buffer
[9] = Octanol-water distribution coefficient, logD of the compound at pH 7.4 by RP-HPLC analysis; type: physicochemical

T1 sequence (P32245 whole entry): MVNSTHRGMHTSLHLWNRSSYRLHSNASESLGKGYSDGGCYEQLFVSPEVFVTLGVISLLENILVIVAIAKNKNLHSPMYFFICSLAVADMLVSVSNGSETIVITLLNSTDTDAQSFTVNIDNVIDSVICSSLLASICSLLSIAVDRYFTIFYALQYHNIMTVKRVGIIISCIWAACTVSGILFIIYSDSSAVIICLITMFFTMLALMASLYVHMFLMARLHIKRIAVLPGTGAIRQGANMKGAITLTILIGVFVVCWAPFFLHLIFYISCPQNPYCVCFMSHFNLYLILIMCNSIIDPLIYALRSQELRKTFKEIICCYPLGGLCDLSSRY
Voltage-gated inwardly rectifying potassium channel KCNH2, sequence (Q12809 whole entry): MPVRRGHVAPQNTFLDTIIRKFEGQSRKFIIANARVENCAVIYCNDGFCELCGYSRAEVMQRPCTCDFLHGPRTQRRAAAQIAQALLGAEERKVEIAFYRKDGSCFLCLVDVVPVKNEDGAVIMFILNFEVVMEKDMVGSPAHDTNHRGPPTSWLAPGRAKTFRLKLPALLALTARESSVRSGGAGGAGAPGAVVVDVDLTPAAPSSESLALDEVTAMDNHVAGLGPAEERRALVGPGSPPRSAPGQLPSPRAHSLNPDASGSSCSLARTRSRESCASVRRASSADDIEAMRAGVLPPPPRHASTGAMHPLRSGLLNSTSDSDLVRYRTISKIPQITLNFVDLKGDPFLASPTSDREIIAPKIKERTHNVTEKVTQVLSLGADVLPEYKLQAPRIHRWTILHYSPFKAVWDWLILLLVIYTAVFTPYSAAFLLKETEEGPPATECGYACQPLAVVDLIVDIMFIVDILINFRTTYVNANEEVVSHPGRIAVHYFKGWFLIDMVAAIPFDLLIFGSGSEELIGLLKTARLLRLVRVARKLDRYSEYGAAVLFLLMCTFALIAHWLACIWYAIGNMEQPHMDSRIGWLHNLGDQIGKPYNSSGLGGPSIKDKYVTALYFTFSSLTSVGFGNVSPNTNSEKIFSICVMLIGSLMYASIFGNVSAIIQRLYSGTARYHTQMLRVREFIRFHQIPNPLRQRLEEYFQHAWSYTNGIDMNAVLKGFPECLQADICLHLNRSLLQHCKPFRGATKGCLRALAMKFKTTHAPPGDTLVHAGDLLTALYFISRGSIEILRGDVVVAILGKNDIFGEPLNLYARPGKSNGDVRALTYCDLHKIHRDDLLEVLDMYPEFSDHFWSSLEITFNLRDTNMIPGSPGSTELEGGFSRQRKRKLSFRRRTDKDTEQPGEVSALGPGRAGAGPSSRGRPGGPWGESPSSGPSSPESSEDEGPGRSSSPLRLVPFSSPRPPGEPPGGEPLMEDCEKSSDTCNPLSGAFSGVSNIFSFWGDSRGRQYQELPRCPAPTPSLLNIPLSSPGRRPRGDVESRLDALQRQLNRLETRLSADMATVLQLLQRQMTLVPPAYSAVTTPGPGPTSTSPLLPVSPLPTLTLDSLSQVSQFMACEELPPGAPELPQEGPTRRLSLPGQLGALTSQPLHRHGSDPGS

Structure (SMILES) | Ki (Melanocortin receptor 4 [1]) [nM] | IC50 (Melanocortin receptor 4 [3]) [nM] | IC50 (Melanocortin receptor 4 [4]) [nM] | Ratio [5] | hepatocyte CLint [6] [µL/min/1e6 cells] | K (Cytochrome P450 3A) [min⁻¹] | hepatocyte CLint [7] [µL/min/1e6 cells] | logD [8] | logD [9] | IC50 [2] [nM]
COc1ccc2nc(N[C@H]3CCN(C(=O)Cc4cc(F)cc(F)c4)C3)ccc2c1 | 0.62 | 360 | 7.8 | 8.6 | 28 | 0.61 | – | – | – | 360
COc1cc(CC(=O)N2CC[C@H](Nc3ccc(-c4nc(C(F)(F)F)n(C)n4)c(C)n3)C2)cc(OC)c1 | – | – | – | – | – | – | 34 | – | 3.6 | –
COc1ccc2nc(N[C@H]3CCN(C(=O)Cc4cc(F)cc(F)c4)C3)c(C)cc2c1 | 910 | – | – | – | – | – | – | – | – | –
COc1cc([C@@H](C)C(=O)N2CC[C@@]3(CCc4cc(-c5nc(C(F)(F)F)n(C)n5)c(C)nc4N3)C2)c(F)cn1 | 0.45 | – | 8.4 | 4.8 | – | – | 12 | – | – | –
Cc1nc2c(cc1-c1cnn(C)c1)CC[C@@]1(CCN(C(=O)Cc3ccc(F)cc3)C1)N2 | 0.6 | – | 39 | 18 | – | – | 6.5 | 2.6 | – | –
COc1ccc2nc(N(C(=O)Cc3cc(F)cc(F)c3)[C@H]3CCNC3)ccc2c1 | – | – | 3.8 | – | – | – | – | – | – | –
Cc1nc(N[C@H]2CCN(C(=O)Cc3ccc(F)cc3)C2)ccc1-c1nc(C(F)(F)F)n(C)n1 | 5.5 | – | 210 | 6.1 | 20 | 0.006 | – | – | – | 78000
Cc1nc2c(cc1-c1cnn(C)c1)CC1(CCN(C(=O)Cc3ccc(F)cc3)C1)N2 (racemic) | > 2200 | – | 20000 | 34 | – | – | – | – | 1.9 | –
Cc1nc2c(cc1-c1cnn(C)c1)OC[C@@]1(CCN(C(=O)Cc3ccc(F)cc3)C1)N2 | – | – | – | – | – | – | 4.9 | – | 2.4 | –

Second part, led by results:

Ki (Melanocortin receptor 4 [1]) [nM] | IC50 (Melanocortin receptor 4 [3]) [nM] | IC50 (Melanocortin receptor 4 [4]) [nM] | Ratio [5] | hepatocyte CLint [6] [µL/min/1e6 cells] | K (Cytochrome P450 3A) [min⁻¹] | hepatocyte CLint [7] [µL/min/1e6 cells] | logD [8] | logD [9] | Structure (SMILES) | IC50 [2] [nM]
0.49 | – | – | 8.7 | – | – | 11 | 3.2 | – | COc1cc([C@@H](C)C(=O)N2CC[C@@]3(CCc4cc(-c5nc(C(F)F)n(C)n5)c(C)nc4N3)C2)c(F)cn1 | –
– | – | – | – | 15 | 0.015 | 15 | – | 3.4 | COc1cc([C@@H](C)C(=O)N2CC[C@H](Nc3ccc(-c4nc(C(F)F)n(C)n4)c(C)n3)C2)c(F)cn1 | 25000
6.4 | – | – | 4.9 | – | – | 7.9 | 2.6 | – | COc1cc([C@@H](C)C(=O)N2CC[C@H](Nc3ccc(-c4ncccn4)c(C)n3)C2)c(F)cn1 | –
1.4 | – | – | 16 | – | – | 10 | 2.7 | – | COc1cc([C@@H](C)C(=O)N2CC[C@H](Nc3ccc(-c4nc(C(F)F)n(C)n4)c(C)n3)C2)ccn1 | –
62 | – | – | – | 7.5 | – | – | – | – | COc1cc([C@@H](C)C(=O)N2CC[C@H](Nc3ccc(-c4n[nH]c(C(F)F)n4)c(C)n3)C2)c(F)cn1 | 19000
19 | – | 240 | 19 | 4.5 | 0.007 | – | – | – | Cc1nc(N[C@H]2CCN(C(=O)Cc3ccc(F)cc3)C2)ccc1-c1ncn(C)n1 | –
27 | – | – | – | – | – | 7.1 | – | – | COc1cc(CC(=O)N2CC[C@H](Nc3ccc(-c4nc(C(F)F)n(C)n4)c(C)n3)C2)ccn1 | –
– | – | – | 6.1 | – | – | 15 | – | 4.2 | COc1cc([C@@H](C)C(=O)N2CC[C@H](Nc3ccc(-c4nc(C(F)(F)F)n(C)n4)c(C)n3)C2)c(F)cn1 | –
– | – | – | – | 18 | – | – | – | – | [2H]C([2H])([2H])n1nc(-c2ccc(N[C@H]3CCN(C(=O)[C@H](C)c4cc(OC)ncc4F)C3)nc2C)nc1C(F)F | 28000
